This passage reports IC50 results from US9580411B2, “Substituted sulfonamide compounds” (Hoffmann-La Roche Inc., priority 2012, dated 2017).

By IC50 is commonly meant the concentration needed to halve the response being measured.

Chain of hTRPA1 (O75762 whole entry): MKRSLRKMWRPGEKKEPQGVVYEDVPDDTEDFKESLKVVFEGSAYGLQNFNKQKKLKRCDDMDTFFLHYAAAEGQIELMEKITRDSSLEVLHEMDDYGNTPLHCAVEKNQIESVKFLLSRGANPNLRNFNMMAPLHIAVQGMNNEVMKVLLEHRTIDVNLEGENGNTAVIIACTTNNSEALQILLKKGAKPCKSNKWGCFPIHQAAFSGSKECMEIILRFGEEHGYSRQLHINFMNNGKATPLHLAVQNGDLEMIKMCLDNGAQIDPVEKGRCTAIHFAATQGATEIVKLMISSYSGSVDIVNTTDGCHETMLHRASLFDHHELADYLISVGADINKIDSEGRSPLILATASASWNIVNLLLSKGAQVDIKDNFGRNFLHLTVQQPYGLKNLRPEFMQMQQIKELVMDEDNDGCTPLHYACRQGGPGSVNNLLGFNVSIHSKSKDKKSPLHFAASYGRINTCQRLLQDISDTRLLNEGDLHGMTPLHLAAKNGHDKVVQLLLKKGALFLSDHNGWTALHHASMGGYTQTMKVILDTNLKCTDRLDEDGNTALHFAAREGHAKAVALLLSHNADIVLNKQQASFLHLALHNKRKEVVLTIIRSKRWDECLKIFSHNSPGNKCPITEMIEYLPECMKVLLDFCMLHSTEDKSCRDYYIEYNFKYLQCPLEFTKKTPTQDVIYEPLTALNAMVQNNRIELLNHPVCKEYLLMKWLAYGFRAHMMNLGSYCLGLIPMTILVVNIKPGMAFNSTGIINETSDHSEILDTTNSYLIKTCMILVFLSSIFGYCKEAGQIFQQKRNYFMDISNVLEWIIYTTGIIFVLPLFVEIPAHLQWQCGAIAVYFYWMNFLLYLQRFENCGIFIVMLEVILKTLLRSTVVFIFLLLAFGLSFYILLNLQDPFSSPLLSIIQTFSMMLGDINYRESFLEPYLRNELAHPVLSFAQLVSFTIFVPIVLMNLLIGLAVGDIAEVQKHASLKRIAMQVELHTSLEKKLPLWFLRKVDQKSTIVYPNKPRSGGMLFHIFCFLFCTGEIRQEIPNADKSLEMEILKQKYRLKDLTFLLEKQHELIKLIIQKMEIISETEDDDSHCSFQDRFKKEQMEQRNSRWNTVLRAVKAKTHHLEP

This test concerns the target hTRPA1 (Homo sapiens (Human), UniProt O75762). The test can be described thus: Dose response calcium flux assay (FLIPR), ChanTest hTRPA1-CHO stably transfected cell line. Format: cell-based. Conditions: CHO-K1 Tet-On human TRPA1 cells, cinnamaldehyde agonist (final 100 uM). On the procedure:
IC50 Determinations of Exemplified Compounds Dose Response Assay: Chan Test hTRPA1-CHO Stably Transfected Cell Line
CHO-K1 Tet-On_HOMSA_TRPA1_Clone_20
Chinese Hamster Ovary cells, inducible expression
• Ham's F-12 with 10% tetracycline-free FBS • 1× penicillin-streptomycin • 1× glutamax • 0.01 mg/ml Blasticidin • 0.40 mg/ml Zeocin • The cell line doubling rate was ˜15 hours. […] Experiments were run at 24 hours post induction. Plating Conditions CHOK1/TRPA1 Cells: • Harvested cells with 0.025% trypsin/EDTA. • Resuspended cells in growth media without selection antibiotics. • Measured cell density and diluted to 2.4×10^5 cells/ml in media containing 1 ug/ml Doxycycline Plate 25 ul/well into 384 well black/clear tissue culture-treated plates. • Incubated overnight at 37° C. Calcium Flux Assay: Day of Assay: Reagents: • Replacement Buffer: Hank's Balanced Salt Solution, 20 mM HEPES along with 0.005% BSA and 2× Probenecid • Dye Loading Buffer: Cal-3 NW Calcium dye was prepared by dissolving the contents of one vial with […] Hank's Balanced Salt Solution containing 20 mM HEPES. • Control compounds for CHOK1/TRPA1 cells: AP-18, stock 10 mM, prepare 3.5× compound dilution in a Compound Buffer (HBSS/20 mM HEPES/0.005% BSA)—final concentration 10 uM. • Preparation of Cinnamaldehyde (agonist addition): FW=132.16 • Specific gravity=1.046 gm/cc • 1.32 gm/1.046 gm/cc=1.26 ml of stock • Add 1.74 ml DMSO=3.3 M stock • Working solution 4.5× (final 100 uM in Compound Buffer: HBSS/20 mM HEPES/0.005% BSA) • Compounds dilutions were prepared from 5 or 10 mM stock (100% DMSO): • Adjustments of volumes and concentrations were made at time of titration to reflect desired final assay concentrations. • Compounds were tested at either 20 μM three folds dilution 11 steps out or 30 μM two folds dilution 11 steps out. • 3 μl of diluted compound were transferred into Weidmann 384-well plate in duplicates side-by-side. • Compound plates were resuspended with 100 ul of HBSS/20 mM HEPES/0.005% BSA buffer (Compound Buffer): • column 1A-H: buffer/DMSO (bk) • column 2A-H: AP-18 (control antagonist for CHOK1 TRPA1 cells) • column 1I-P: ATP (control for CHOK1 teton cells) • column 2 I-P: 2APB (control antagonist for CHOK1/TRPM8 cells). Growth media was removed from the cell plates (20 ul) and 20 ul of the Replacement Buffer was added followed by addition of 25 ul of diluted dye. All three steps were performed using a Plate Washer BioTek 407. The plates were then incubated for 30′ at RT.
After incubation, both the cell and compound plates were brought to the FLIPR and 20 ul of the diluted compounds/antagonist/bk were transferred to the cell plates by the FLIPR. Plates were then incubated for 30′ at room temperature. After 30′ incubation, plates were returned to the FLIPR and 20 ul of 4.5× Cinnamaldehyde was added to the cell plates. During the compound addition as well as agonist addition, fluorescence readings were taken simultaneously from all 384 wells of the cell plate every 1.5 seconds. Five readings were taken to establish a stable baseline, then 20 ul of sample was rapidly (30 ul/sec) and simultaneously added to each well of the cell plate. The fluorescence was continuously monitored before, during and after sample/agonist addition for a total elapsed time of 100 seconds (compound addition) and 120 seconds (agonist addition). Responses (increase in peak fluorescence) in each well following agonist addition was determined. The initial fluorescence reading from each well, prior to ligand stimulation, was used a zero baseline value for the data from that well.
(In general: Calcium flux is commonly read through the fluorescence of an indicator in the cells.)
On to `C[C@H](C(=O)NCc1cccc(-c2ccc(C(F)(F)F)cc2)c1)N(C)S(=O)(=O)c1ccc(F)cc1` [Example 4, (R)-2-[(4-Fluoro-benzenesulfonyl)-methyl-amino]-N-(4′-trifluoromethyl-biphenyl-3-ylmethyl)-propionamide], for which the IC50 was 1120 nM. As for `CC(C)N(CC(=O)NCc1cc(-c2ccc(C(F)(F)F)cc2)ncn1)S(=O)(=O)c1ccc(Cl)s1` [Example 75, 2-[(5-Chloro-thiophene-2-sulfonyl)-isopropyl-amino]-N-[6-(4-trifluoromethyl-phenyl)-pyrimidin-4-ylmethyl]-acetamide], the half-maximal inhibitory concentration (IC50) came out at 25 nM. The figure for `COc1cc(CNC(=O)CN(C(C)C)S(=O)(=O)c2ccc(F)cc2)cc(-c2ccc(C(F)(F)F)cc2)c1` [Example 45, 2-[(4-Fluoro-benzenesulfonyl)-isopropyl-amino]-N-(5-methoxy-4′-trifluoromethyl-biphenyl-3-ylmethyl)-acetamide] is 48 nM.

Take `CN(CC(=O)NCc1cc(-c2ccc(C(F)(F)F)cc2)ncn1)S(=O)(=O)c1ccc(Cl)s1` [Example 25, 2-[(5-chloro-thiophene-2-sulfonyl)-methyl-amino]-N-[6-(4-trifluoromethyl-phenyl)-pyrimidin-4-ylmethyl]-acetamide]: the IC50 came out at 42 nM. The figure for `CCN(CC(=O)NCc1cc(F)cc(-c2ccc(C(F)(F)F)cc2)c1)S(=O)(=O)c1ccc(F)cc1` [Example 15, 2-[Ethyl-(4-fluoro-benzenesulfonyl)-amino]-N-(5-fluoro-4′-trifluoromethyl-biphenyl-3-ylmethyl)-acetamide] is 28 nM; for `O=C(CN(CCO)S(=O)(=O)c1ccc(F)cc1)NCc1cccc(-c2ccc(C(F)(F)F)cc2)c1` [Example 19, 2-[(4-Fluoro-benzenesulfonyl)-(2-hydroxy-ethyl)-amino]-N-(4′-trifluoromethyl-biphenyl-3-ylmethyl)-acetamide] it is 98 nM; for `CN(CC(=O)NCc1cccc(-c2ccc(C(F)(F)F)cc2)c1)S(=O)(=O)c1ccc(F)cc1` [Example 1, 2-[(4-Fluoro-benzenesulfonyl)-methyl-amino]-N-(4′-trifluoromethyl-biphenyl-3-ylmethyl)-acetamide] it is 81 nM. As to `CC(C)N(CC(=O)NCc1ccc(F)c(-c2ccc(C(F)(F)F)cc2)c1)S(=O)(=O)c1ccc(F)cc1` [Example 35, 2-[(4-Fluoro-benzenesulfonyl)-isopropyl-amino]-N-(6-fluoro-4′-trifluoromethyl-biphenyl-3-ylmethyl)-acetamide], the IC50 was found to be 54 nM. The figure for `O=C(CN(CC(F)(F)F)S(=O)(=O)c1ccc(F)cc1)NCc1cccc(-c2ccc(C(F)(F)F)cc2)c1` [Example 13, 2-[(4-fluoro-benzenesulfonyl)-(2,2,2-trifluoro-ethyl)-amino]-N-(4′-trifluoromethyl-biphenyl-3-ylmethyl)-acetamide] is 260 nM. As to `CC(C)N(CC(=O)NCc1ccc(-c2ccc(C(F)(F)F)cc2)cc1)S(=O)(=O)c1ccc(F)cc1` [Example 33, 2-[(4-Fluoro-benzenesulfonyl)-isopropyl-amino]-N-(4′-trifluoromethyl-biphenyl-4-ylmethyl)-acetamide], the IC50 amounted to 2210 nM.

With `O=C(CNS(=O)(=O)c1ccc(F)cc1)NCc1cccc(-c2ccc(C(F)(F)F)cc2)c1` [Example 3, 2-(4-Fluoro-benzenesulfonylamino)-N-(4′-trifluoromethyl-biphenyl-3-ylmethyl)-acetamide], the IC50 amounted to 1080 nM. The figure for `CC(C)N(CC(=O)NCc1cc(-c2ccc(C(F)(F)F)cc2)ncn1)S(=O)(=O)c1ccc(Cl)nc1` [Example 64, 2-[(6-Chloro-pyridine-3-sulfonyl)-isopropyl-amino]-N-[6-(4-trifluoromethyl-phenyl)-pyrimidin-4-ylmethyl]-acetamide] is 83 nM; for `CC(C)N(CC(=O)NCc1cccc(-c2ccc(C(F)(F)F)nn2)c1)S(=O)(=O)c1ccc(Cl)nc1` [Example 73, 2-[(6-Chloro-pyridine-3-sulfonyl)-isopropyl-amino]-N-[3-(6-trifluoromethyl-pyridazin-3-yl)-benzyl]-acetamide] it is 682 nM; for `CC(C)N(CC(=O)NCc1ccnc(-c2ccc(C(F)(F)F)cc2)c1)S(=O)(=O)c1cccc(F)c1` [Example 59, 2-[(3-Fluoro-benzenesulfonyl)-isopropyl-amino]-N-[2-(4-trifluoromethyl-phenyl)-pyridin-4-ylmethyl]-acetamide] it is 99 nM.

Consider `CC(C)N(CC(=O)NCc1cc(-c2ccc(C(F)(F)F)cc2)ncn1)S(=O)(=O)c1ccc(F)c(F)c1` [Example 69, 2-[(3,4-Difluoro-benzenesulfonyl)-isopropyl-amino]-N-[6-(4-trifluoromethyl-phenyl)-pyrimidin-4-ylmethyl]-acetamide], for which the IC50 was 19 nM. The figure for `CC(C)N(CC(=O)NCc1cccc(-c2ccc(C(F)(F)F)cc2)c1)S(=O)(=O)c1cccc(F)c1` [Example 48, 2-[(3-Fluoro-benzenesulfonyl)-isopropyl-amino]-N-(4′-trifluoromethyl-biphenyl-3-ylmethyl)-acetamide] is 34 nM. The figure for `CN(C(CO)C(=O)NCc1cccc(-c2ccc(C(F)(F)F)cc2)c1)S(=O)(=O)c1ccc(F)cc1` (centres unmarked) [Example 51, 2-[(4-Fluoro-benzenesulfonyl)-methyl-amino]-3-hydroxy-N-(4′-trifluoromethyl-biphenyl-3-ylmethyl)-propionamide] is 130 nM. The figure for `C[C@H](C(=O)NCc1cc(-c2ccc(C(F)(F)F)cc2)ncn1)N(C)S(=O)(=O)c1ccc(F)cc1` [Example 38, (R)-2-[(4-Fluoro-benzenesulfonyl)-methyl-amino]-N-[6-(4-trifluoromethyl-phenyl)-pyrimidin-4-ylmethyl]-propionamide] is 64 nM; for `O=C(CN(CC1COC1)S(=O)(=O)c1ccc(F)cc1)NCc1cccc(-c2ccc(C(F)(F)F)cc2)c1` [Example 54, 2-[(4-Fluoro-benzenesulfonyl)-oxetan-3-ylmethyl-amino]-N-(4′-trifluoron-3-ylmethyl-amino]-N-(4′-trifluoromethyl-biphenyl-3-ylmethyl)-acetamide] it is 1760 nM. As for `O=C(CN(C1CC1)S(=O)(=O)c1ccc(F)cc1)NCc1cccc(-c2ccc(C(F)(F)F)cc2)c1` [Example 22, 2-[Cyclopropyl-(4-fluoro-benzenesulfonyl)-amino]-N-(4′-trifluoromethyl-biphenyl-3-ylmethyl)-acetamide], the IC50 was found to be 190 nM. The figure for `CN(C(C)(C)C(=O)NCc1cccc(-c2ccc(C(F)(F)F)cc2)c1)S(=O)(=O)c1ccc(F)cc1` [Example 7, 2-[(4-Fluoro-benzenesulfonyl)-methyl-amino]-2-methyl-N-(4′-trifluoromethyl-biphenyl-3-ylmethyl)-propionamide] is 800 nM; for `CC(C)N(CC(=O)NCc1cc(-c2ccc(C(F)(F)F)nc2)ncn1)S(=O)(=O)c1ccc(Cl)s1` [Example 76, 2-[(5-Chloro-thiophene-2-sulfonyl)-isopropyl-amino]-N-[6-(6-trifluoromethyl-pyridin-3-yl)-pyrimidin-4-ylmethyl]-acetamide] it is 20 nM. The figure for `CC(C)N(CC(=O)NCc1cncc(-c2ccc(C(F)(F)F)cc2)c1)S(=O)(=O)c1ccc(F)cc1` [Example 57, 2-[(4-Fluoro-benzenesulfonyl)-isopropyl-amino]-N-[5-(4-trifluoromethyl-phenyl)-pyridin-3-ylmethyl]-acetamide] is 180 nM.
